A short description of series [1]: Bidirectional permeability across Caco-2 cell monolayers. The settings on record: human; for recovery at 120 min, 5 μM: Caco-2, Caco-2, 5 μM; for Papp A→B at 120 min, 5 μM / Papp B→A at 120 min, 5 μM / efflux ratio at 120 min, 5 μM: Caco-2, 5 μM. The series is classed as in vitro ADME. As to the method: The bidirectional permeability and absorption mechanism of ZB716 was evaluated across Caco-2 cell monolayers.
The apical-to-basolateral (A–B) and basolateral-to-apical (B–A) transport of ZB716 in HBSS (25 mM HEPES) with 1% BSA was measured across Caco-2 cell monolayers. […] All incubations were performed in triplicate, and the integrity of the cell monolayers was confirmed using the marker Lucifer yellow.
The slope, k, was determined by linear
using the following equation: […]
1.4 Intestinal Mucosal Permeation of ZB716
Papp= VAArea х timeх ሾdrugሿreceiverሾdrugሿinitial,donor
(Caco-2 monolayers are a common model of the intestinal barrier.)

The subject of the next series is CYP3A4. As to the kind of experiment: CYP induction (enzyme activity) in cryopreserved human hepatocytes, CYP3A4. The series is classed as in vitro ADME. The conditions noted are these: 30 µM; for fold induction at 72 h, 30 µM: human, plated cryopreserved human hepatocytes.
In another series the test system is CYP1A2. Description: CYP induction (enzyme activity) in cryopreserved human hepatocytes, CYP1A2. The conditions noted are these: for Percent of Control / fold induction at 72 h, 30 µM: 30 µM; for fold induction at 72 h, 30 µM / fold induction at 72 h, 50 µM: human, plated cryopreserved human hepatocytes.
In a further series the test system is CYP2B6. As to the kind of experiment: CYP induction (enzyme activity) in cryopreserved human hepatocytes, CYP2B6. The conditions noted are these: for Percent of Control / fold induction at 72 h, 30 µM: 30 µM; for fold induction at 72 h, 30 µM / fold induction at 72 h, 1000 µM: human, plated cryopreserved human hepatocytes.

Experimental findings from paper PMC8400955 (Pharmaceuticals, 2021) are described below.

Like-named read-outs stand apart in the source and are kept apart here.

Protocol for CYP1A2: (§1) The UPLC–MS/MS (SHIMADZU, LC-30AD) equipped with waters Xselect®HSS T3 2.5 μm (2.1 × 50 mm) was used to detect the marker metabolites in the enzyme activity assay. The fold-induction enzyme activity was determined using the ratio calculation (the calculation details are available in the Supplementary Materials).
(§2) CYP activity was expressed as pmol/min/million cells where pmol was defined as the amount of metabolite formed during the reaction. […] The fold-induction enzyme activity was determined by the ratio:
(§3) Fold of induction = CYP activity(induced) / CYP activity(vehicle)
(§4) % of positive control = (𝑪𝒀𝑷 𝒂𝒄𝒕𝒊𝒗𝒊𝒕𝒚(𝒊𝒏𝒅𝒖𝒄𝒆𝒅)ି 𝑪𝒀𝑷 𝒂𝒄𝒕𝒊𝒗𝒊𝒕𝒚(𝑫𝑴𝑺𝑶))(𝑪𝒀𝑷 𝒂𝒄𝒕𝒊𝒗𝒊𝒕𝒚(𝒑𝒐𝒔𝒊𝒕𝒊𝒗𝒆 𝒄𝒐𝒏𝒕𝒓𝒐𝒍)ି 𝑪𝒀𝑷 𝒂𝒄𝒕𝒊𝒗𝒊𝒕𝒚(𝑫𝑴𝑺𝑶))х 𝟏𝟎𝟎 Based on the enzyme activity, a minimum of 2-fold increase of a response compared to vehicle control and ≥ 20% of the positive control was considered as the cutoff for a positive signal in in vitro induction
Protocol for CYP2B6: as §1, §2, §3, §4

Regarding `C[C@H]1O[C@@H](O[C@H]2[C@@H](O)C[C@H](O[C@H]3[C@@H](O)C[C@H](O[C@H]4CC[C@@]5(C)[C@H](CC[C@@H]6[C@@H]5C[C@@H](O)[C@]5(C)[C@@H](C7=CC(=O)OC7)CC[C@]65O)C4)O[C@@H]3C)O[C@@H]2C)C[C@H](O)[C@@H]1O` [Digoxin, digoxin, reference compound], the recovery at 120 min, 5 μM in series [1] (read-out: Recovery A to B) was found to be 92.4 ± 1%. Further, in series [1] (read-out: Recovery B to A), the recovery at 120 min, 5 μM came to 86 ± 6%. In series [1], the Papp A→B at 120 min, 5 μM is 0.687 ± 0.088 ×10⁻⁶ cm/s; the Papp B→A at 120 min, 5 μM was determined as 14.5 ± 1.68 ×10⁻⁶ cm/s; the efflux ratio at 120 min, 5 μM was found to be 21.2 ± 2.

For `CCOC(=O)c1ncn2c1CN(C)C(=O)c1cc(F)ccc1-2` [Flumazenil, flumazenil, reference compound], the “Percent of Control” value is 1.16% in the series on CYP3A4 (donor one); 3.11% in the series with CYP3A4 (donor three); 4.37% in the series with CYP3A4 (donor two); −2.20% in the series with CYP1A2 (donor one); −3.60% with CYP1A2 (donor three); 0.450% in the series on CYP1A2 (donor two). For the same compound, the “Percent of Control” value with CYP2B6 (donor one) is recorded as 3.77%; in the series on CYP2B6 (donor three) it was 5.23%; in the series with CYP2B6 (donor two), −3.61%. The fold induction at 72 h, 30 µM came out at 1.06 ± 0.09 in the series with CYP3A4 (donor one); 1.23 ± 0.09 in the series with CYP3A4 (donor three); 1.39 ± 0.04 with CYP3A4 (donor two); 0.818 ± 0.032 in the series on CYP1A2 (donor one); 0.807 ± 0.177 in the series with CYP1A2 (donor three); 1.06 ± 0.11 with CYP1A2 (donor two). The fold induction at 72 h, 30 µM in the series on CYP2B6 (donor one) stood at 1.17 ± 0.04; with CYP2B6 (donor three), 1.28 ± 0.2; in the series with CYP2B6 (donor two), 0.789 ± 0.07.

Turning to `Nc1cc(N2CCCCC2)nc(N)[n+]1[O-]` [Minoxidil, minoxidil, reference compound], in series [1] (read-out: Recovery A to B), the recovery at 120 min, 5 μM was 91 ± 1.4%. Also, the recovery at 120 min, 5 μM in series [1] (read-out: Recovery B to A) is 94.4 ± 48%. For the same compound, in series [1], the Papp A→B at 120 min, 5 μM came out at 6.47 ± 0.22 ×10⁻⁶ cm/s; the Papp B→A at 120 min, 5 μM was 7.44 ± 0.47 ×10⁻⁶ cm/s; the efflux ratio at 120 min, 5 μM worked out at 1.15 ± 0.09.

For the compound `COc1ccc2[nH]c([S+]([O-])Cc3ncc(C)c(OC)c3C)nc2c1` (stereo not shown) [Omeprazole, omeprazole, reference compound], the results for the fold induction at 72 h, 50 µM in the series on CYP1A2 (donor one), in the series on CYP1A2 (donor three) and in the series with CYP1A2 (donor two) were 9.28 ± 0.223, 6.37 ± 0.14 and 15 ± 1.8, respectively.

Regarding `CCC1(c2ccccc2)C(=O)NC(=O)NC1=O` [Phenobarbital, phenobarbital, reference compound], the fold induction at 72 h, 1000 µM with CYP2B6 (donor one) was 5.44 ± 0.13; in the series on CYP2B6 (donor three) it was 6.29 ± 0.9; with CYP2B6 (donor two), 6.86 ± 0.36.

What is called Papp A→B is how fast a substance crosses the layer from the apical side. Higher therefore signals ready permeation. What is called Papp B→A is the apparent permeability from the basolateral to the apical side of a cell layer. Usually efflux ratio stands for a quotient of directional permeabilities that is used to spot active efflux. Broadly, the fold induction is the signal under treatment as a multiple of the control signal.
